Type in all cases: functional
The test system of assay [1] is Neisseria meningitidis. Put plainly: Antimicrobial activity against fluoroquinolone-resistant Neisseria meningitidis expressing gyrA mutant at 30 ug by disk diffusion method. The settings on record: read-out: IZ. Background: A growth-free zone around the sample is the usual read-out of agar diffusion tests.
Assay [2] has as its system Neisseria meningitidis. The experiment in a line: Antimicrobial activity against fluoroquinolone-susceptible Neisseria meningitidis by disk diffusion method. The conditions noted are these: for MIC: Neisseria meningitidis.
The subject of assay [3] is Neisseria meningitidis. Put plainly: Antimicrobial activity against fluoroquinolone-susceptible Neisseria meningitidis at 30 ug by disk diffusion method. The settings on record: read-out: IZ.
Assay [4] deals with Neisseria meningitidis. The experiment in a line: Antimicrobial activity against fluoroquinolone-intermediate Neisseria meningitidis by disk diffusion method.
The subject of assay [5] is Neisseria meningitidis. The experiment in a line: Antimicrobial activity against fluoroquinolone-resistant Neisseria meningitidis expressing gyrA mutant by disk diffusion method.

≈ marks a conversion by molar mass, not a printed value. Bounds are passed on as bounds.

`CCn1cc(C(=O)O)c(=O)c2ccc(C)nc21` [NALIDIXIC ACID]: the zone of inhibition at 30 µg/disc was below 15 mm with Neisseria meningitidis [1] and 28 mm in the assay with Neisseria meningitidis [3]. Besides, the MIC – broadly, the least concentration at which growth counts as inhibited – against Neisseria meningitidis [2] came to 0.25 mg/L (≈ 1.08 µM).

For `O=C(O)c1cn(C2CC2)c2cc(N3CCNCC3)c(F)cc2c1=O` [CIPROFLOXACIN], the figures for the “inhibition zone (IZ)” value with Neisseria meningitidis [4], in the assay on Neisseria meningitidis [2] and in the assay on Neisseria meningitidis [5] were 35 mm, 34 mm and 29 mm, respectively. Also, the MIC was 0.06 mg/L (≈ 0.181 µM) against Neisseria meningitidis [4] (Neisseria meningitidis), at most 0.03 mg/L in the assay with Neisseria meningitidis [2] and at least 0.12 mg/L against Neisseria meningitidis [5] (Neisseria meningitidis).

These data come from ChEMBL document CHEMBL1629607, “Nalidixic acid disk for laboratory detection of ciprofloxacin resistance in Neisseria meningitidis” (2009).
